Measurements reported in PubChem BioAssay (NCI).
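48-hour exposure; five concentrations; linearly interpolated endpoints. At the GI50, growth is halved. At the TGI there is no net growth.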

Legend:
Assay in all cases: inhibition of tumour cell growth, NCI panel, 48 h
CAKI-1 renal = test system: CAKI-1 renal
DU-145 prostate = test system: DU-145 prostate
MDA-MB-231 breast = test system: MDA-MB-231 breast
MDA-N = test system: MDA-N
PC-3 prostate = test system: PC-3 prostate
RPMI-8226 leukemia = test system: RPMI-8226 leukemia
DMS 273 small cell lung = test system: DMS 273 small cell lung
M19-MEL melanoma = test system: M19-MEL melanoma
NCI-H226 lung = test system: NCI-H226 lung
SNB-78 CNS = test system: SNB-78 CNS
SR leukemia = test system: SR leukemia
LXFL 529 NSCLC = test system: LXFL 529 NSCLC
RXF-631 renal = test system: RXF-631 renal

| SMILES | TGI (CAKI-1 renal) [µM] | TGI (DU-145 prostate) [µM] | TGI (MDA-MB-231 breast) [µM] | TGI (MDA-N) [µM] | TGI (PC-3 prostate) [µM] | TGI (RPMI-8226 leukemia) [µM] | TGI (DMS 273 small cell lung) [µM] | TGI (M19-MEL melanoma) [µM] | TGI (NCI-H226 lung) [µM] | TGI (SNB-78 CNS) [µM] | TGI (SR leukemia) [µM] | TGI (LXFL 529 NSCLC) [µM] | TGI (RXF-631 renal) [µM] | GI50 (CAKI-1 renal) [µM] | GI50 (DU-145 prostate) [µM] | GI50 (MDA-MB-231 breast) [µM] | GI50 (NCI-H226 lung) [µM] | GI50 (PC-3 prostate) [µM] | GI50 (RPMI-8226 leukemia) [µM] | GI50 (SR leukemia) [µM] |
| --- | --- | --- | --- | --- | --- | --- | --- | --- | --- | --- | --- | --- | --- | --- | --- | --- | --- | --- | --- | --- |
| Brc1ccccc1-c1ncc(-c2ccccc2)o1 | > 100 | > 100 | > 100 | > 100 | > 100 | 48.8 |  |  |  |  |  |  |  |  |  |  |  |  |  |  |
| COc1cc(C2c3cc4c(cc3[C@@H](Nc3cccc(C(C)=O)c3)C3COC(=O)[C@H]23)OCO4)cc(OC)c1O (stereo not given in full) | 2.13 |  |  |  |  | 2.21 | 1.81 | > 57.7 | 1.99 | > 100 |  |  |  |  |  |  |  |  |  |  |
| CC1(C)N=C(N)N=C(N)N1c1cccc(OCCOc2ccc([N+](=O)[O-])cc2)c1 | > 100 | > 100 | > 100 | > 100 | > 100 | > 100 |  |  |  |  | > 100 |  |  |  |  |  |  |  |  |  |
| COc1ccc(CC(C)N)cc1 (stereo not given) | > 100 |  |  |  |  | > 100 | > 100 |  | > 100 | > 100 | > 100 | > 100 | > 100 |  |  |  |  |  |  |  |
| CC(C)(Br)C1(O)CCCN1C(=O)c1ccccc1 (stereo not given) |  |  |  |  |  |  | > 100 | > 100 |  | > 100 | > 100 | > 100 | > 100 |  |  |  |  |  |  |  |
| NCc1ccccc1C1CSCSC1 |  |  |  |  |  |  | > 100 | > 100 | > 100 | > 100 |  | > 100 |  |  |  |  |  |  |  |  |
| CC12Cc3cc4c(cc3C1(c1ccc([N+](=O)[O-])cc1)OCCO2)OCO4 (stereo not given) | > 100 | > 100 | 42.3 | > 100 | > 100 | > 100 |  |  | 86.7 |  | > 100 |  |  |  |  |  |  |  |  |  |
| O=C(CSCC(=O)N/N=C\c1ccc(-c2ccccc2)cc1)N/N=C\c1ccc(-c2ccccc2)cc1 | > 100 | > 100 | 25.2 |  | 88.1 |  |  |  | 84.5 |  | 26.8 |  |  |  |  |  |  |  |  |  |
| c1ccc(-c2nn(-c3ccccc3)[n+](-c3ccccc3)n2)cc1 | > 100 | > 100 | > 100 | 31.5 | > 20.7 |  |  |  | > 100 |  | > 44.4 |  |  |  |  |  |  |  |  |  |
| Cc1ccc(S(N)(=O)=O)cc1 |  | > 1000 |  | > 1000 | > 1000 | > 1000 |  |  | > 1000 |  | > 1000 |  |  |  |  |  |  |  |  |  |
| COc1ccc(NC(=O)/C(=C/c2ccc(N(CCC#N)CCC#N)cc2)NC(=O)c2cc([N+](=O)[O-])ccc2Cl)cc1 | > 100 |  |  |  |  | > 100 | > 100 | > 100 | > 100 | > 100 | > 100 | > 100 | > 100 |  |  |  |  |  |  |  |
| CCOC(=O)/C=C(\C)c1ccc(OC)cc1 | > 100 |  |  |  |  | > 100 | > 100 |  | > 100 | > 100 | > 100 | > 100 |  |  |  |  |  |  |  |  |
| c1ccc(CSc2nc(N3CCOCC3)c3cn[nH]c3n2)cc1 | 57.5 | > 100 | 39.4 |  | 38.2 | 35.2 |  |  | 73.1 |  | 63.6 |  |  |  |  |  |  |  |  |  |
| CC[n+]1c(/C=C/c2ccc(N(CCCl)CCCl)cc2)ccc2cc(NC(=O)/C=C/c3ccccc3)ccc21 | 19.2 | 1.64 | 1.09 | 1.7 | 1.09 | 0.696 |  |  | 2.89 | 16 | 0.728 |  |  |  |  |  |  |  |  |  |
| ClCc1c(Cl)c(Cl)c(Cl)c(CCl)c1Cl | 3.1 | 3.99 | 3.29 |  | 3.15 | 4.24 |  |  | 7.3 |  | 5 |  |  | 1.68 | 1.98 | 1.81 | 2.53 | 1.69 | 1.86 | 1.48 |
| COC(=O)c1cc(C#Cc2cc(OC)ccc2OC)ccc1OC | > 100 | > 100 | > 100 | > 100 | > 100 | 41.3 |  |  | > 100 |  | > 100 |  |  |  | 43.6 |  |  |  |  |  |
| CN(C)c1ccc(N=Nc2ccccn2)cc1 | > 100 | > 100 | > 100 | > 100 | 81.9 | > 100 |  |  | > 100 |  |  |  |  |  |  |  |  |  |  |  |
| COc1cc[n+](C)cc1 |  |  |  |  |  | > 100 | > 100 | > 100 | > 100 | > 100 |  |  |  |  |  |  |  |  |  |  |
| COc1ccc(NC(=O)/C(CC2=Nc3ccc([N+](=O)[O-])cc3NC2O)=N\NC(=O)C[N+](C)(C)C)c(OC)c1 (stereo not given) | > 100 | > 100 | 42.1 | > 100 | > 100 |  |  |  | > 100 |  | 48.6 |  |  |  |  |  |  |  |  |  |
| Cc1nc2ccccc2c(=O)[nH]1 |  |  |  |  |  | > 100 |  | > 100 | > 100 | > 100 |  | > 100 | > 100 |  |  |  |  |  |  |  |
| N#Cc1c(NC(=S)NC(=O)c2ccccc2)nc2c(c1-c1ccccc1)CCCC2 | > 100 | > 100 | > 100 | > 100 | > 100 | > 100 |  |  |  |  | > 100 |  |  |  |  |  |  |  |  |  |
| C=C1C(=O)OC2C1CC(O)/C(C)=C\CCC1(C)OC21 (stereo not given) |  | > 100 | 35.4 | 36.2 | > 100 | 65.4 |  |  |  |  | 61.2 |  |  |  |  |  |  |  |  |  |
| COc1ccc(-c2cc(N3CCN(c4ccccc4)CC3)c(C#N)c(=O)o2)cc1 | 53.9 |  |  |  |  | > 100 | > 100 |  | 9.94 | 59 | > 100 | > 100 | > 100 |  |  |  |  |  |  |  |
| CCC(C)C(=O)c1c(O)c(C/C=C(\C)CCC=C(C)C)c(O)c2c(C(O)CC)cc(=O)oc12 (stereo not given) | 12.1 |  |  |  |  | 3.51 | 8.29 | 6.51 | 9.11 | 16.7 | 3.48 | 2.99 | 14.2 |  |  |  |  |  |  |  |
| O=[N+]([O-])c1cn[n+]([O-])c2ccccc12 | 8.1 | 3.79 | 27.3 | 27.5 | 23.3 | 7.37 |  |  | 27.3 |  |  |  |  |  |  |  |  |  |  |  |
| CCO/N=[N+](\[O-])N(CC)CC | > 100 |  |  |  |  |  | > 100 | > 100 | > 100 | > 100 | > 100 | > 100 | > 100 |  |  |  |  |  |  |  |
| Cc1cn(Cc2ccccc2CCl)c(=O)[nH]c1=O | 24.8 | 31.3 |  |  | 44.2 |  |  |  |  |  |  |  |  |  |  |  |  |  |  |  |
| COC(=O)/C=c1/c2ccccc2n2nc3ccccc3c12 | > 100 | > 100 | 91.3 | > 100 | > 100 | > 100 |  |  |  |  | 17.1 |  |  |  |  |  |  |  |  |  |
